What all share (assay): NCI tumour cell line growth inhibition, 48 h
Test [1] deals with HCT-116.
The test system of test [2] is HOP-92.
Test [3] relates to HT-29.
Test [4] concerns Hs-578T.
In test [5] the test system is IGROV-1.
In test [6] the test system is KM12.
Test [7] relates to NCI-H23.
Test [8] deals with NCI-H522.
Test [9] relates to OVCAR-3.
Test [10] relates to OVCAR-4.
Test [11] relates to PC-3.
The test system of test [12] is RXF 393.
Test [13] has as its system SF-268.
Test [14] concerns SF-539.
The test system of test [15] is SK-MEL-28.
Test [16] relates to SK-MEL-5.
For test [17], the system named is SNB-19.
Test [18] concerns UACC-257.
The subject of test [19] is LXFL 529.
The subject of test [20] is SNB-78.

The record followed here is ChEMBL document CHEMBL1201862, “PubChem BioAssay data set” (2004).

Each structure is given as a SMILES string.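 Briefly, cells in 96-well plates were exposed to five compound concentrations for 48 h, and endpoints were estimated by linear interpolation. Abbreviation: GI50, concentration required for 50% inhibition of growth.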 Activity calls are given as the source filed them. Rule as the data show it: active = GI50 up to about 1.1 µM and inactive = higher. Some results are limits rather than exact numbers.

Consider `O=C(O)c1ccc2c(c1C(=O)O)C(=O)OC2(c1ccc(O)cc1)c1ccc(O)cc1`, for which the GI50 in test [1], in [2], in test [3], in [4], in [5] and in [6] was > 100 µM (inactive) in each case. Further, the GI50 in test [7], in [8], in test [9], in test [10], in [11] and in test [12] was > 100 µM (inactive) throughout. Moreover, the GI50 in test [13], in [14], in test [15], in [16], in test [17] and in test [18] was > 100 µM (inactive) each time.

Regarding `C/C(=N\NC(N)=S)c1ccc2c(c1)OCO2`, the GI50 in test [1], in test [2], in test [3], in [5], in [6] and in [19] was > 100 µM (inactive) in each case. Moreover, the GI50 in [7] is > 100 µM (inactive); in test [8] it was 32.4 µM (inactive); in [9], > 100 µM (inactive); in test [12], > 100 µM (inactive); in test [13], > 100 µM (inactive); in test [14] it was > 100 µM (inactive). The GI50 in [15] is > 100 µM (inactive); in test [16] it was > 100 µM (inactive); in test [17] it was > 100 µM (inactive); in test [20] it was > 100 µM (inactive); in test [18] it was 99.1 µM (inactive).

For `COc1nc(NC2OC(COC(C)=O)C(OC(C)=O)C(OC(C)=O)C2OC(C)=O)c(/N=C(\C)C(C)=O)c(=O)n1C` (stereo not drawn), the GI50 in test [1], in test [2], in test [3], in test [5], in test [6] and in test [19] was > 100 µM (inactive) throughout. Moreover, the GI50 in test [7], in test [9], in [10], in [12], in [14] and in test [16] was > 100 µM (inactive) each time. Also, the GI50 in test [17], in test [20] and in test [18] was > 100 µM (inactive) each time.

Regarding `COC(=O)C1C(=O)C=CN([C@H](C)c2ccccc2)[C@@H]1Cc1ccc(OC)c(OCc2ccccc2)c1I` (stereo partly drawn), the GI50 in [1] is 11.7 µM (inactive); in [2], 3.3 µM (inactive); in test [3], 10 µM (inactive); in test [4], 17.5 µM (inactive); in [5], 10.2 µM (inactive); in test [6], 19.2 µM (inactive). Further, the GI50 in test [7] is 17 µM (inactive); in [8] it was 13.6 µM (inactive); in [9], 14.6 µM (inactive); in test [10], 8.83 µM (inactive); in [11], 13.8 µM (inactive); in test [12], 11.8 µM (inactive). In addition, the GI50 was 14.9 µM (inactive) in [13]; 19.4 µM (inactive) in [14]; 40.6 µM (inactive) in test [15]; 13.5 µM (inactive) in test [16]; 15 µM (inactive) in test [17]; 18.2 µM (inactive) in [18].

`CSc1c(C)c(C)nn1-c1ccccc1`: the GI50 in test [3], in [5], in test [6], in test [19], in test [7] and in [8] was > 100 µM (inactive) each time. Further, the GI50 in test [10], in [12], in test [13], in [14], in test [15] and in [16] was > 100 µM (inactive) each time. In addition, the GI50 in test [17], in [20] and in test [18] was > 100 µM (inactive) in each case.

Turning to `O=C(Cc1nc2ccccc2s1)Nc1ccc(Cl)cc1`, the GI50 in test [1] is > 100 µM (inactive); in test [3], > 100 µM (inactive); in [5], > 100 µM (inactive); in test [6], 78.5 µM (inactive); in test [19], 44.2 µM (inactive); in test [7], > 100 µM (inactive). For the same molecule, the GI50 in test [8], in test [9], in test [10], in test [12], in test [13] and in test [14] was > 100 µM (inactive) each time. Further, the GI50 in test [15] was > 100 µM (inactive); in test [16], 83.8 µM (inactive); in test [17], > 100 µM (inactive); in test [20], > 100 µM (inactive); in test [18], > 100 µM (inactive).

Turning to `CC(C)(C)OC1=C(OC(C)(C)C)C(O)(c2ccccc2)C1=O` (stereo not drawn), the GI50 in test [3], in test [5], in test [6], in test [19], in test [7] and in [9] was > 100 µM (inactive) throughout. The GI50 in test [10], in [12], in test [13], in [14], in test [15] and in test [16] was > 100 µM (inactive) throughout. In addition, the GI50 in test [17] and in [20] was > 100 µM (inactive) each time.

As to `CCN(CC)CCCC(C)Nc1c(Sc2cnc3cc(Cl)ccc3c2NC(C)CCCN(CC)CC)cnc2cc(Cl)ccc12` (stereo not drawn), the GI50 in test [1] is 1.37 µM (inactive); in [2], 1.96 µM (inactive); in [3], 1.65 µM (inactive); in test [5], 1.87 µM (inactive); in test [6], 2.07 µM (inactive); in [19], 1.92 µM (inactive). The GI50 in test [7] was 3.3 µM (inactive); in test [8] it was 1.73 µM (inactive); in test [9], 1.9 µM (inactive); in test [10] it was 1.73 µM (inactive); in [12] it was 1.67 µM (inactive); in [13], 2.02 µM (inactive). In addition, the GI50 in test [15] was 1.86 µM (inactive); in test [20], 2.73 µM (inactive); in test [18], 2.03 µM (inactive).

On to `CC(C)/C(Cl)=N\OC(=O)Nc1ccc(F)c([N+](=O)[O-])c1`, for which the GI50 in [1] is 3.08 µM (inactive); in test [2], 2.22 µM (inactive); in test [3], 15.9 µM (inactive); in test [4] it was 12.1 µM (inactive); in test [5], 6.53 µM (inactive); in [6], 14.6 µM (inactive). Further, the GI50 is 17.1 µM (inactive) in test [7]; 0.792 µM (active) in test [8]; 14.2 µM (inactive) in [9]; 4.07 µM (inactive) in test [10]; 18.1 µM (inactive) in test [11]; 18 µM (inactive) in [12]. For the same molecule, the GI50 in [13] was 14.3 µM (inactive); in test [14], 3 µM (inactive); in test [15] it was 12.6 µM (inactive); in test [16], 8.43 µM (inactive); in test [17] it was 16.7 µM (inactive); in test [18] it was 16.1 µM (inactive).

Take `CC(SC(=O)Nc1ccc(/N=N/c2ccccc2)cc1)C(=O)O` (stereo not drawn): the GI50 in test [1] was > 100 µM (inactive); in [3], 68.4 µM (inactive); in test [5], 24.3 µM (inactive); in [6] it was 54.3 µM (inactive); in test [19] it was 98.4 µM (inactive); in [7] it was > 100 µM (inactive). The GI50 is 68.4 µM (inactive) in test [8]; > 100 µM (inactive) in test [9]; > 100 µM (inactive) in test [10]; 73.5 µM (inactive) in test [12]; 17.3 µM (inactive) in test [13]; 88.5 µM (inactive) in [14]. Further, the GI50 in test [15] is > 100 µM (inactive); in [17] it was > 100 µM (inactive); in [20], > 100 µM (inactive); in test [18], 98.6 µM (inactive).

In the case of `CC(C)(C)c1cc2nc(c1)C(C(F)(F)F)(C(F)(F)F)OB(Br)OC2(C(F)(F)F)C(F)(F)F`, the GI50 in test [3] is 0.156 µM (active); in [5] it was 0.0269 µM (active); in [6], < 0.01 µM (active); in test [19], 0.261 µM (active); in test [7], 4.47 µM (inactive); in [9] it was < 0.01 µM (active). Moreover, the GI50 is < 0.01 µM (active) in [10]; 10 µM (inactive) in test [12]; 3.01 µM (inactive) in test [13]; 0.316 µM (active) in test [14]; 4.8 µM (inactive) in test [15]; 0.156 µM (active) in [17]. The GI50 is 0.12 µM (active) in [20] and < 0.01 µM (active) in test [18].

Turning to `COc1ccc(-c2cc(=O)c3ccc(O)cc3o2)c(OC)c1OC`, the GI50 in [1] is 51.9 µM (inactive); in [2] it was 82.2 µM (inactive); in test [3] it was 60.4 µM (inactive); in test [5], > 100 µM (inactive); in test [6], 71.1 µM (inactive); in test [19], 66.8 µM (inactive). The GI50 in test [7] was 43.4 µM (inactive); in test [8], 25.4 µM (inactive); in [9], 41.9 µM (inactive); in test [10] it was 88.7 µM (inactive); in test [12], 28.9 µM (inactive); in [13], 41.3 µM (inactive). Moreover, the GI50 in [14] is 46 µM (inactive); in test [15], 64.3 µM (inactive); in test [17] it was 65 µM (inactive); in [18] it was 94 µM (inactive).
